In ChEMBL document CHEMBL4330083, “Synthesis and evaluation of isoprenylation-resveratrol dimer derivatives against Alzheimer's disease” (Eur J Med Chem, 2019):
The source made the active and inactive calls. The rule behind the calls is not given here.

What was measured:
PC-12 [1] = experiment: Neuroprotection against H2O2-induced oxidative damage in rat PC12 cells assessed as late apoptotic cells at 5 uM after 24 hrs in presence of H2O2 by annexin V-FITC/propidium iodide staining based flow cytometric analysis (reference value: 6.2%); type: functional
PC-12 [2] = experiment: Neuroprotection against H2O2-induced oxidative damage in rat PC12 cells assessed as viable cells at 5 uM after 24 hrs in presence of H2O2 by annexin V-FITC/propidium iodide staining based flow cytometric analysis (reference value: 64.1%); type: functional; details: PC-12, 24 h, read-out: Activity
PC-12 [3] = experiment: Neuroprotection against H2O2-induced oxidative damage in rat PC12 cells assessed as viable cells at 10 uM after 24 hrs in presence of H2O2 by annexin V-FITC/propidium iodide staining based flow cytometric analysis (reference value: 64.1%); type: functional; details: PC-12, 24 h, read-out: Activity
[4] = Neuroprotection against LPS-induced inflammation in […] cells assessed as reduction in ROS production by measuring mean fluorescence intensity at 5 uM after 18 hrs by DCFH-DA staining-based flow cytometric analysis (reference value: 56792); type: functional
PC-12 [5] = experiment: (§1) Neuroprotection against H2O2-induced oxidative damage in rat PC12 cells assessed as reduction in ROS production by measuring mean fluorescence intensity at 5 uM preincubated for 4 hrs followed by H2O2 addition measured after 24 hrs by DCFH-DA staining-based flow cytometric analysis (reference value: 102489); type: functional
PC-12 [6] = experiment: Neuroprotection against H2O2-induced oxidative damage in rat PC12 cells assessed as viable cells at 2.5 uM after 24 hrs in presence of H2O2 by annexin V-FITC/propidium iodide staining based flow cytometric analysis (reference value: 64.1%); type: functional; details: PC-12, 24 h, read-out: Activity
PC-12 [7] = experiment: Neuroprotection against H2O2-induced oxidative damage in rat PC12 cells assessed as increase in mitochondrial membrane potential at 2.5 to 10 uM after 24 hrs in presence of H2O2 by JC-1 staining based flow cytometric analysis; type: functional, cell-based
[8] = Neuroprotection against LPS-induced inflammation in human BV2 cells assessed as reduction in ROS production by measuring mean fluorescence intensity at 2.5 uM after 18 hrs by DCFH-DA staining-based flow cytometric analysis (reference value: 56792); type: functional
[9] = Neuroprotection against H2O2-induced inflammation in […] cells assessed as reduction in ROS production by measuring mean fluorescence intensity at 5 uM after 18 hrs by DCFH-DA staining-based flow cytometric analysis (reference value: 20004); type: functional
PC-12 [10] = experiment: Neuroprotection against H2O2-induced oxidative damage in rat PC12 cells assessed as intracellular Ca2+ level by measuring mean fluorescence intensity at 5 uM after 24 hrs in presence of H2O2 by Fluo-3/AM staining based flow cytometric analysis (reference value: 51697); type: functional
PC-12 [11] = experiment: Neuroprotection against H2O2-induced oxidative damage in rat PC12 cells assessed as necrotic cells at 10 uM after 24 hrs in presence of H2O2 by annexin V-FITC/propidium iodide staining based flow cytometric analysis (reference value: 0.4%); type: functional
PC-12 [12] = experiment: Neuroprotection against H2O2-induced oxidative damage in rat PC12 cells assessed as intracellular Ca2+ level by measuring mean fluorescence intensity at 2.5 uM after 24 hrs in presence of H2O2 by Fluo-3/AM staining based flow cytometric analysis (reference value: 51697); type: functional
PC-12 [13] = experiment: Neuroprotection against H2O2-induced oxidative damage in rat PC12 cells assessed as necrotic cells at 5 uM after 24 hrs in presence of H2O2 by annexin V-FITC/propidium iodide staining based flow cytometric analysis (reference value: 4.5%); type: functional
PC-12 [14] = experiment: Neuroprotection against H2O2-induced oxidative damage in rat PC12 cells assessed as early apoptotic cells at 2.5 uM after 24 hrs in presence of H2O2 by annexin V-FITC/propidium iodide staining based flow cytometric analysis (reference value: 2.1%); type: functional
[15] = Neuroprotection against H2O2-induced inflammation in […] cells assessed as reduction in ROS production by measuring mean fluorescence intensity at 5 uM after 18 hrs by DCFH-DA staining-based flow cytometric analysis (reference value: 11273); type: functional
PC-12 [16] = experiment: as §1, with “82616)” for “102489)”; type: functional

SMILES | Activity (PC-12 [1]) [%] | viability at 5 µM (PC-12 [2]) [%] | viability at 10 µM (PC-12 [3]) [%] | Flu intensity [4] | Flu intensity (PC-12 [5]) | viability at 2.5 µM (PC-12 [6]) [%] | Activity (PC-12 [7]) | Flu intensity [8] | Flu intensity [9] | Flu intensity (PC-12 [10]) | Activity (PC-12 [11]) [%] | Flu intensity (PC-12 [12]) | Activity (PC-12 [13]) [%] | Activity (PC-12 [14]) [%] | Flu intensity [15] | Flu intensity (PC-12 [16])
CC(C)=CCc1c(O)cc(/C=C/c2ccc3c(c2)[C@H](c2cc(O)c(CC=C(C)C)c(O)c2)[C@@H](c2ccc(O)cc2)O3)cc1O | 4 | 82.2 | 88.4 | 28450 | 85417 | 75.9 | Active | 31340 | 11602 | 38796 | 0.7 | 40059 | – | – | – | –
CC(C)=CCc1c(O)cc(/C=C/c2ccc3c(c2)[C@H](c2cc(O)c4c(c2)OC(C)(C)CC4)[C@@H](c2ccc(O)cc2)O3)cc1O | – | – | – | – | – | – | – | – | – | – | – | – | 1.8 | 2.1 | 9218 | 58560
